Patent US20150105252A1, “SUBSTITUTED PYRAZOLES AS HERBICIDES” (E I DU PONT DE NEMOURS AND COMPANY, priority 2013, published 2015)

Experiments:
ryegrass, Italian = assay: Test C preemergence; type: in vivo, Lolium multiflorum
Method in brief: (§1)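 Visual control ratings on a 0–100 scale (100 = complete control) made against untreated controls after 13 to 15 days in greenhouse. Compounds applied in surfactant-containing solvent mixture, either preemergence to loam/sand-sown seeds or postemergence to 1- to 4-leaf plants (2–18 cm) in peat medium.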

foxtail, giant = assay: Test C preemergence; type: in vivo, Setaria faberii
Method in brief: as §1

velvetleaf [1] = assay: Test A postemergence; type: in vivo, Abutilon theophrasti; settings: Postemergence
Method in brief: (§2)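 Scoring was visual, on a scale where 100 means complete control and 0 means no effect, comparing treated with untreated plants around 10 days post-application. Compounds in surfactant-containing non-phytotoxic solvent were sprayed onto soil preemergence or onto one- to two-leaf seedlings (2–10 cm) postemergence.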

wheat [2] = assay: Test A preemergence; type: in vivo, Triticum aestivum; settings: preemergence; for Wheat plant response rating (0 to 100 scale): 125 g ai/ha, visual injury approx. 10 days after treatment
Method in brief: as §2

barnyardgrass [3] = assay: Test B flood; type: in vivo, Echinochloa crus-galli; settings: 250 g ai/ha, visual rating on 0 to 100 scale (0 no effect, 100 complete control), 13 to 15 days
Method in brief: (§3)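 Each compound is applied to the floodwater of pots holding 2-leaf seedlings, water standing 3 cm over the soil throughout. Plants stay in a greenhouse 13 to 15 days before visual scoring against controls from 0 (no effect) to 100 (complete control).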

pigweed = assay: Test C preemergence; type: in vivo, Amaranthus retroflexus
Method in brief: as §1

barnyardgrass [4] = assay: Test A preemergence; type: in vivo, Echinochloa crus-galli; settings: preemergence; for Barnyardgrass plant response rating (0 to 100 scale, 0 is no effect, 100 is complete control): 125 g ai/ha, visual injury approx. 10 days after treatment; for Barnyardgrass plant response rating: 500 g ai/ha, visual injury after approx. 10 days, 0 to 100 scale (0 no effect, 100 complete control)
Method in brief: as §2

corn [5] = assay: Test A postemergence; type: in vivo, Zea mays
Method in brief: as §2

sedge, umbrella = assay: Test B flood; type: in vivo, Cyperus difformis; settings: 250 g ai/ha, visual rating on 0 to 100 scale (0 no effect, 100 complete control), 13 to 15 days
Method in brief: as §3

wheat [6] = assay: Test A postemergence; type: in vivo, Triticum aestivum; settings: Postemergence
Method in brief: as §2

velvetleaf [7] = assay: Test C preemergence; type: in vivo, Abutilon theophrasti
Method in brief: as §1

ragweed = assay: Test C preemergence; type: in vivo, Ambrosia elation
Method in brief: as §1

corn [8] = assay: Test C preemergence; type: in vivo, Zea mays
Method in brief: as §1

morningglory = assay: Test C preemergence; type: in vivo, Ipomoea coccinea
Method in brief: as §1

[9] = preemergence, 31 g ai/ha, visual rating, scale 0 to 100 (0 no effect, 100 complete control), 13 to 15 days
[10] = preemergence, 62 g ai/ha, scale 0 to 100 (0 no effect, 100 complete control), 13 to 15 days
[11] = preemergence, 125 g ai/ha, 13 to 15 days, scale 0 to 100, 0 = no effect, 100 = complete control
[12] = preemergence, 250 g ai/ha, scale 0 to 100, 0 is no effect, 100 is complete control
[13] = 125 g ai/ha, 0 to 100 scale, 0 no effect, 100 complete control
[14] = 500 g ai/ha, 0 to 100 scale (0 no effect, 100 complete control)
[15] = Postemergence, 500 g ai/ha, 0 to 100 scale (0 no effect, 100 complete control)
[16] = Preemergence, rate head not shown (block before 16 g ai/ha), scale 0 to 100

Structure (SMILES)	Ryegrass, Italian plant response rating (ryegrass, Italian; [10])	Plant response rating, Ryegrass, Italian (ryegrass, Italian; [11])	Ryegrass, Italian plant response rating (ryegrass, Italian; [12])	Foxtail, Giant plant response rating (foxtail, giant; [10])	Plant response rating, Foxtail, Giant (foxtail, giant; [11])	Foxtail, Giant plant response rating (foxtail, giant; [12])	Velvetleaf plant response rating (velvetleaf [1]; [13])	Velvetleaf plant response rating (velvetleaf [1]; [14])	Wheat plant response rating (0 to 100 scale) (wheat [2])	Plant response rating, Barnyardgrass (barnyardgrass [3])	Pigweed plant response rating (pigweed; [10])	Plant response rating, Pigweed (pigweed; [11])	Pigweed plant response rating (pigweed; [12])	Barnyardgrass plant response rating (0 to 100 scale, 0 is no effect, 100 is complete control) (barnyardgrass [4])	Barnyardgrass plant response rating (barnyardgrass [4])	Corn plant response rating (corn [5]; [15])	Plant response rating, Sedge, Umbrella (sedge, umbrella)	Wheat plant response rating (wheat [6]; [13])	Wheat plant response rating (wheat [6]; [14])	Velvetleaf plant response rating (velvetleaf [7]; [10])	also measured
CCc1cc(C(=O)NC2CC2)nn1Cc1ccnc(OCC(F)(F)F)c1 [Compound 200]	90	90	95	85	98	100	80	90	0	25	100	100	100	90	100	100	90	40	100	70	Ryegrass, Italian plant response rating (ryegrass, Italian; [9]): 0; Foxtail, Giant plant response rating (foxtail, giant; [9]): 75; Wheat plant response rating (wheat [2]; 500 g ai/ha, visual injury after approx. 10 days, 0 to 100 scale (0 no effect, 100 complete control)): 100; Pigweed plant response rating (pigweed; [9]): 100; Corn plant response rating (corn [5]; postemergence, 125 g ai/ha, about 10 days, visual rating on 0 to 100 scale (0 no effect, 100 complete control)): 80; Velvetleaf plant response rating (velvetleaf [7]; [9]): 40; Plant response rating, Velvetleaf (velvetleaf [7]; [11]): 100; Velvetleaf plant response rating (velvetleaf [7]; [12]): 100; Ragweed plant response rating (ragweed; [9]): 5; Ragweed plant response rating (ragweed; [10]): 35; Plant response rating, Ragweed (ragweed; [11]): 70; Ragweed plant response rating (ragweed; [12]): 85; Corn plant response rating (corn [8]; [9]): 0; Corn plant response rating (corn [8]; [10]): 15; Plant response rating, Corn (corn [8]; [11]): 35; Corn plant response rating (corn [8]; [12]): 80; Morningglory plant response rating (morningglory; [9]): 55; Morningglory plant response rating (morningglory; [10]): 95; Plant response rating, Morningglory (morningglory; [11]): 98; Morningglory plant response rating (morningglory; [12]): 100
CCc1cc(C(=O)NC2CC2)nn1Cc1cc(C(F)(F)C(F)(F)F)nn1C [Compound 226]	5	35	80	90	100	100	50	90	40	50	100	100	100	80	100	80	90	60	90	80	Plant response rating, Ryegrass, Italian (ryegrass, Italian; [16]): 0; Plant response rating, Foxtail, Giant (foxtail, giant; [16]): 80; Plant response rating, Pigweed (pigweed; [16]): 100; Corn plant response rating (corn [5]; Postemergence, 125 g ai/ha, 0 to 100 scale, 0 no effect, 100 complete control): 50; Plant response rating, Velvetleaf (velvetleaf [7]; [16]): 25; Plant response rating, Velvetleaf (velvetleaf [7]; [11]): 100; Velvetleaf plant response rating (velvetleaf [7]; [12]): 100; Plant response rating, Ragweed (ragweed; [16]): 90; Ragweed plant response rating (ragweed; [10]): 100; Plant response rating, Ragweed (ragweed; [11]): 95; Ragweed plant response rating (ragweed; [12]): 98; Plant response rating, Corn (corn [8]; Preemergence, rate head not shown (block before 16 g ai/ha), scale 0 to 100, 100 is complete control): 10; Corn plant response rating (corn [8]; [10]): 15; Plant response rating, Corn (corn [8]; [11]): 30; Corn plant response rating (corn [8]; [12]): 70; Plant response rating, Morningglory (morningglory; [16]): 85; Morningglory plant response rating (morningglory; [10]): 85; Plant response rating, Morningglory (morningglory; [11]): 100; Morningglory plant response rating (morningglory; [12]): 100
